Source: the supplement of paper PMC8617591

Assays:
[1] = tested on: Mycobacterium tuberculosis Erdman (autoluminescent); assay: FIC90 (Loewe) at 90% inhibition (log2); higher = more antagonistic
Description: (§1)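 DiaMOND equipotent two-drug combination dose responses against autoluminescent M. tuberculosis Erdman in 8 in vitro models. Read-out is OD600, or luminescence for the intracellular and dormancy models, normalised to untreated wells. Hill-fit Einf, AUC25 and GRinf are potency metrics; FIC50 and FIC90 are Loewe-additivity fractional inhibitory concentrations, given as log2 (negative = synergy). Replicates are averaged.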

[2] = tested on: Mycobacterium tuberculosis Erdman (autoluminescent); assay: FIC50 (Loewe) at 50% inhibition (log2); higher = more antagonistic
Description: as §1

[3] = tested on: Mycobacterium tuberculosis Erdman (autoluminescent); assay: Einf, fitted maximum growth inhibition of combination (fraction); higher = stronger maximal inhibition
Description: as §1

[4] = tested on: Mycobacterium tuberculosis Erdman (autoluminescent); assay: AUC25, normalised area under dose response up to IC25 (fraction (0-1)); higher = more potent at low dose
Description: as §1

[5] = tested on: Mycobacterium tuberculosis Erdman (autoluminescent); assay: GRinf, maximum normalised growth rate inhibition (unitless (-1 to 1)); higher = less effect (negative = killing)
Description: as §1

[6] = in vitro model: acidic pH 5.7, time point: constant (~7 days, model-specific)
[7] = in vitro model: acidic pH 5.7, time point: terminal (~4-5 doublings, model-specific)
[8] = in vitro model: butyrate, time point: constant (~7 days, model-specific)
[9] = in vitro model: butyrate, time point: terminal (~4-5 doublings, model-specific)
[10] = in vitro model: cholesterol-high 0.2 mM, time point: terminal (~4-5 doublings, model-specific)
[11] = in vitro model: dormancy (butyrate + nitrate, low O2), time point: constant (~7 days, model-specific)
[12] = in vitro model: dormancy (butyrate + nitrate, low O2), time point: terminal (~4-5 doublings, model-specific)
[13] = in vitro model: intracellular J774, time point: constant = terminal
[14] = in vitro model: valerate, time point: terminal (~4-5 doublings, model-specific)
[15] = in vitro model: cholesterol 0.05 mM, time point: terminal (~4-5 doublings, model-specific)
[16] = in vitro model: cholesterol-high 0.2 mM, time point: constant (~7 days, model-specific)
[17] = in vitro model: standard 7H9 glycerol, time point: constant = terminal
[18] = in vitro model: valerate, time point: constant (~7 days, model-specific)
[19] = in vitro model: cholesterol 0.05 mM, time point: constant (~7 days, model-specific)

COc1nc2ccc(Br)cc2cc1[C@@H](c1ccccc1)[C@@](O)(CCN(C)C)c1cccc2ccccc12 [bedaquiline] + NC(=O)c1cnccn1 [pyrazinamide]
FIC90 [1, 6]: -1.27
FIC90 [1, 7]: -0.613
FIC90 [1, 8]: 0.896
FIC90 [1, 9]: 1.12
FIC90 [1, 10]: 0.208
FIC90 [1, 11]: -1.22
FIC90 [1, 12]: -0.991
FIC90 [1, 13]: 0.411
FIC90 [1, 14]: 0.391
FIC50 [2, 6]: -0.282
FIC50 [2, 7]: -0.0485
FIC50 [2, 8]: 0.033
FIC50 [2, 9]: 0.262
FIC50 [2, 15]: 0.282
FIC50 [2, 16]: 0.168
FIC50 [2, 10]: 0.224
FIC50 [2, 11]: -1.06
FIC50 [2, 12]: -0.504
FIC50 [2, 17]: -0.45
FIC50 [2, 18]: 0.247
FIC50 [2, 14]: 0.318
Einf [3, 6]: 0.84
Einf [3, 7]: 0.985
Einf [3, 8]: 0.969
Einf [3, 9]: 0.991
Einf [3, 19]: 0.746
Einf [3, 15]: 0.949
Einf [3, 16]: 0.978
Einf [3, 10]: 1
Einf [3, 11]: 0.919
Einf [3, 12]: 0.98
Einf [3, 13]: 0.99
Einf [3, 17]: 0.943
Einf [3, 18]: 0.896
Einf [3, 14]: 0.943
AUC25 [4, 6]: 0.0806
AUC25 [4, 7]: 0.0795
AUC25 [4, 8]: 0.124
AUC25 [4, 9]: 0.106
AUC25 [4, 19]: 0.101
AUC25 [4, 15]: 0.0985
AUC25 [4, 16]: 0.0781
AUC25 [4, 10]: 0.0705
AUC25 [4, 11]: 0.0588
AUC25 [4, 12]: 0.0543
AUC25 [4, 17]: 0.072
AUC25 [4, 18]: 0.0845
AUC25 [4, 14]: 0.057
GRinf [5, 6]: -0.398
GRinf [5, 7]: -0.351
GRinf [5, 8]: -0.595
GRinf [5, 9]: -0.941
GRinf [5, 19]: -0.259
GRinf [5, 15]: -0.43
GRinf [5, 16]: -0.543
GRinf [5, 10]: -0.654
GRinf [5, 11]: 0.131
GRinf [5, 12]: -0.121
GRinf [5, 13]: -0.387
GRinf [5, 17]: -0.0583
GRinf [5, 18]: -0.0105
GRinf [5, 14]: 0.0136

COc1nc2ccc(Br)cc2cc1[C@@H](c1ccccc1)[C@@](O)(CCN(C)C)c1cccc2ccccc12 [bedaquiline] + NNC(=O)c1ccncc1 [isoniazid]
FIC90 [1, 7]: 0.404
FIC90 [1, 8]: 0.547
FIC90 [1, 9]: 0.506
FIC90 [1, 15]: 0.193
FIC90 [1, 16]: 0.699
FIC90 [1, 10]: 0.25
FIC90 [1, 11]: 0.194
FIC90 [1, 12]: -0.202
FIC90 [1, 13]: 0.531
FIC90 [1, 17]: -0.0712
FIC90 [1, 18]: 0.24
FIC90 [1, 14]: 0.741
FIC50 [2, 6]: 0.428
FIC50 [2, 7]: 0.351
FIC50 [2, 8]: 0.533
FIC50 [2, 9]: 0.43
FIC50 [2, 19]: 0.373
FIC50 [2, 15]: 0.302
FIC50 [2, 16]: 0.284
FIC50 [2, 10]: 0.335
FIC50 [2, 11]: 0.646
FIC50 [2, 12]: 0.0908
FIC50 [2, 17]: -0.0769
FIC50 [2, 18]: 0.561
FIC50 [2, 14]: 0.661
Einf [3, 6]: 0.873
Einf [3, 7]: 0.984
Einf [3, 8]: 0.944
Einf [3, 9]: 0.98
Einf [3, 19]: 0.729
Einf [3, 15]: 0.913
Einf [3, 16]: 0.964
Einf [3, 10]: 0.996
Einf [3, 11]: 0.92
Einf [3, 12]: 0.983
Einf [3, 13]: 0.98
Einf [3, 17]: 0.966
Einf [3, 18]: 0.946
Einf [3, 14]: 0.971
AUC25 [4, 6]: 0.107
AUC25 [4, 7]: 0.0934
AUC25 [4, 8]: 0.0598
AUC25 [4, 9]: 0.0557
AUC25 [4, 19]: 0.102
AUC25 [4, 15]: 0.0662
AUC25 [4, 16]: 0.0815
AUC25 [4, 10]: 0.0507
AUC25 [4, 11]: 0.0656
AUC25 [4, 12]: 0.0512
AUC25 [4, 17]: 0.0578
AUC25 [4, 18]: 0.0996
AUC25 [4, 14]: 0.0554
GRinf [5, 6]: -0.331
GRinf [5, 7]: -0.384
GRinf [5, 8]: -0.0886
GRinf [5, 9]: -0.111
GRinf [5, 19]: -0.169
GRinf [5, 15]: -0.202
GRinf [5, 16]: -0.49
GRinf [5, 10]: -0.658
GRinf [5, 11]: 0.179
GRinf [5, 12]: -0.0876
GRinf [5, 13]: -0.383
GRinf [5, 17]: -0.124
GRinf [5, 18]: -0.194
GRinf [5, 14]: -0.129

COc1nc2ccc(Br)cc2cc1[C@@H](c1ccccc1)[C@@](O)(CCN(C)C)c1cccc2ccccc12 [bedaquiline] + O=[N+]([O-])c1cn2c(n1)OC[C@@H](OCc1ccc(OC(F)(F)F)cc1)C2 [pretomanid]
FIC90 [1, 6]: 0.503
FIC90 [1, 7]: 0.292
FIC90 [1, 8]: 1.49
FIC90 [1, 9]: 1.5
FIC90 [1, 15]: 1.33
FIC90 [1, 16]: 1.04
FIC90 [1, 10]: 0.706
FIC90 [1, 11]: -0.857
FIC90 [1, 12]: -1.14
FIC90 [1, 13]: 0.703
FIC90 [1, 17]: 0.269
FIC90 [1, 18]: 1.2
FIC90 [1, 14]: 0.71
FIC50 [2, 6]: 0.399
FIC50 [2, 7]: 0.169
FIC50 [2, 8]: 0.76
FIC50 [2, 9]: 0.874
FIC50 [2, 19]: 0.484
FIC50 [2, 15]: 0.466
FIC50 [2, 16]: 0.673
FIC50 [2, 10]: 0.686
FIC50 [2, 11]: -0.341
FIC50 [2, 12]: -0.522
FIC50 [2, 17]: 0.0934
FIC50 [2, 18]: 0.105
FIC50 [2, 14]: 0.0653
Einf [3, 6]: 0.879
Einf [3, 7]: 0.973
Einf [3, 8]: 0.96
Einf [3, 9]: 0.99
Einf [3, 19]: 0.737
Einf [3, 15]: 0.928
Einf [3, 16]: 0.883
Einf [3, 10]: 0.991
Einf [3, 11]: 0.927
Einf [3, 12]: 0.98
Einf [3, 13]: 1
Einf [3, 17]: 0.982
Einf [3, 18]: 0.935
Einf [3, 14]: 0.96
AUC25 [4, 6]: 0.121
AUC25 [4, 7]: 0.0888
AUC25 [4, 8]: 0.105
AUC25 [4, 9]: 0.0889
AUC25 [4, 19]: 0.118
AUC25 [4, 15]: 0.0926
AUC25 [4, 16]: 0.0648
AUC25 [4, 10]: 0.0479
AUC25 [4, 11]: 0.0466
AUC25 [4, 12]: 0.0475
AUC25 [4, 17]: 0.0817
AUC25 [4, 18]: 0.136
AUC25 [4, 14]: 0.099
GRinf [5, 6]: -0.293
GRinf [5, 7]: -0.358
GRinf [5, 8]: -0.17
GRinf [5, 9]: -0.346
GRinf [5, 19]: -0.158
GRinf [5, 15]: -0.23
GRinf [5, 16]: -0.183
GRinf [5, 10]: -0.576
GRinf [5, 11]: 0.169
GRinf [5, 12]: -0.0913
GRinf [5, 13]: -0.579
GRinf [5, 17]: -0.196
GRinf [5, 18]: -0.238
GRinf [5, 14]: -0.0796
